Results taken from PMC10447463, “Data-mining unveils structure–property–activity correlation of viral infectivity enhancing self-assembling peptides” (Nature Communications, 2023).
Like-named read-outs stand apart in the source and are kept apart here.

Columns and labels:
[1] = Conversion rate (CR) assay with fluorescamine; type: physicochemical; set-up: key to CR: % = 100−100×filtrate/original fluorescence intensity
Procedure, shortened: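 Lyophilized PNF (from 1 mg/mL) scanned 64× on diamond ATR, 2 cm^-1 resolution; β-sheet content per earlier report. CR: spin through 3 kDa MWCO, 16200 x g, 4 °C, 45 min; lyophilize filtrate + unfiltered; DMSO; fluorescamine 20 min RT; ex 365/em 470.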

[2] = Aggregate analysis by widefield fluorescence microscopy; type: physicochemical; conditions: for Number of Aggregates / Aggregate Number: ThT-stained aggregates > 10 µm2 in 1330 µm × 1330 µm, 1 mg/mL 1 d, diluted to 0.1 mg/mL with 50 µM ThT, 3D object counter ImageJ, triplicate
Method: 4 µL of 1 mg/mL peptide fibrils solution is added to a 20 µL, 50 µM ThT–solution in PBS. The mixture is incubated for 15 min at RT to allow binding of ThT dye with β–sheet rich structures. For reference PBS (4 µL) was added instead of peptide fibril solution. The samples were placed in black UV Star® 384 microliter well–plates (Greiner bio–one). Fluorescence spectra were recorded on an Infinite® M1000 PRO microplate reader (Tecan) at λem = 488 nm upon excitation at λex = 440 nm with 10 nm bandwidths and multiple reads per well (3×3). Measurements were repeated in triplicates and averaged with standard deviation. A peptide fibril was considered as ThT-active if the fluorescence intensity was at least twice as strong compared to the control (PBS containing 10% DMSO). Zeta-Potential. For the determination of the surface charge of aggregated peptides zeta-potential measurements were conducted with a Zetasizer Nano ZS, Malvern Instruments. Unless stated otherwise the peptides were dissolved from DMSO (10 mg/mL) in PBS (pH 7.4) to concentration of 1 mg/mL and incubated for 1d at RT. Just before the measurement the 60 µL of the peptides were further diluted in 600 µL KCl (aq, 1 mM) in a 1 mL disposable folded capillary cells (DTS–1060, Zetasizer Nano series, Malvern). The zeta potential of the peptides was derived from the electrophoretic mobility based on the Smoluchowski formula. All measurements were averaged over two individually performed experiments and conducted in triplicates for each sample. Aggregate analysis. […] Furthermore, fluorescence microscopy was conducted by staining 1 µL preformed fibrils (1 mg/mL) with 9 µL ThT (50 µM). Brightfield microscopy was performed simultaneously to evaluate aggregation also for non ThT-active fibrils. The measurements were performed on a Leica DMi8 microscope with 10x air objective and equipped with a Leica MC170 HD camera with a filter setting λem = 527/30 nm upon excitation at λex = 480/40 nm) and processed with the Leica LASX software. To quantify size and number of microscopic aggregation of particles > 10 µm^2 at least 3 independently measured images were analyzed via the 3D object counter analysis tool of ImageJ, v 1.53f51. Sum–frequency generation. The SFG experiments were carried out with a femtosecond Ti: Sapphire amplified laser system (Spitfire Ace, Spectra–Physics, 800 nm, 40 fs, 1 kHz) with 5 W output power. We used 2 W to pump an optical parametric amplifier (TOPAS, light conversion) with a non–collinear difference frequency generation stage to generate broadband IR pulses. Another 1 W of the laser output passed through an etalon to generate narrowband visible pulses (10 cm^-1). The incident angles of the visible and IR beams were 36° and 41° with respect to the surface normal, respectively. The visible (13 µJ) and IR (5 µJ) pulses were overlapped spatially and temporally at the sample position. Subsequently, the generated SFG pulse was guided into a spectrograph (Acton SP 300i, Princeton Instruments), and detected with an EMCCD (Newton, Andor Technology). To avoid IR absorption of water vapor, we purged N2 for the measurement. All spectra were collected in the ssp (denoting s-, s- and p-polarized SFG, visible and IR, respectively) polarization combination. The spectra were normalized to the non–resonant signal taken from z–cut quartz after subtracting a background spectrum.
Table S8 Summary of aggregate analysis from widefield microscopy measurements (Figure S32). The Number of aggregated peptides, the median size area, average size area
and the cumulative total size area of all particles (> 10 µm2) in an area of 1330 µm × 1330 µm was determined via automated 3D object counting (ImageJ) in triplicate
measurements (Std. Dev.).
Aggregate Std. Dev. Std. Dev. Std. Dev. Std. Dev.
Sequence Abs. Inf. / Std. Dev. / Count Rate / Std. Dev. Number Aggregate Median Area Median Area Average Area Average Area Total Area/ Total Area/ […]

[3] = Fig. S7 panel B, conversion rate, fluorescamine assay
[4] = conversion rate, fluorescamine assay

Substance | CR / % [1, 3] | CR [1, 4] | further results
CEIEIQI | 59% | 59 | –
CETMYDKILKNLSRSR | 98.9% | 98.89 | –
CHLHLQL | 96.6% | 96.58 | Number of Aggregates / Aggregate Number [2]: 36
CKFC | 35.9% | 35.92 | –
CKFKFQF | 95.6% | 95.56 | Number of Aggregates / Aggregate Number [2]: 128; Log10 Number Aggregates ([2]; logarithm of averaged number of aggregates in 1330 µm × 1330 µm): 2.108
CKFKFQFNM | 93.5% | 93.52 | Number of Aggregates / Aggregate Number [2]: 170
CKFKFQFNMWQ | 97.5% | 97.52 | –
CKFQC | 33.2% | 33.24 | –
CKIKQIINM | 45% | 45 | –
CKWKWQW | – | – | Number of Aggregates / Aggregate Number [2]: 87
CRFRFQF | 98.1% | 98.13 | –
CRFRVPF | 97.1% | 97.05 | –
HGDKCHGDKC | 37.4% | 37.3627 | –
HGEHGEHGE | 42.9% | 42.88 | –
HIHIQIC | 82.7% | 82.72 | Number of Aggregates / Aggregate Number [2]: 33
HLHLPLL | 37.5% | 37.51 | –
HRRHFRHKITKKK | 44.9% | 44.91 | –
KAKAQA | 0.3% | 0.3138 | –
KAKAQANMWQ | 56.2% | 56.24 | CR / % ([1]; conversion of monomer to nanostructures, 3 kDa MWCO filtration, fluorescamine, ex 365 / em 470 nm, triplicate): 56%
KFKFQF | 67.4% | 67.4 | –

Substance | CR / % [1, 3] | CR [1, 4] | further results
KFKFQFNMWQ | 96.2% | 96.16 | Number of Aggregates / Aggregate Number [2]: 64
KIKIQI | 18.9% | 18.91 | –
KIKIQINM | 64% | 64 | –
KIKIQINMWQ | 94.3% | 94.34 | –
KIKQIIN | – | – | Number of Aggregates / Aggregate Number [2]: 12
KIKQIINM | 43% | 43 | –
KIKQIINMWQ | 90.1% | 90.09 | Number of Aggregates / Aggregate Number [2]: 39
KNERIKNERI | 54.4% | 54.36 | –
KWKWQW | – | – | Number of Aggregates / Aggregate Number [2]: 28
MDQMDQMDQMDQMDQ | 53% | 53.03 | –
MKFKFQF | 86.9% | 86.86 | –
QCKFKFQFNM | 98.9% | 98.94 | –
QCKFKFQFNMWQ | 98.9% | 98.91 | –
QCKIKIQINMWQ | 93.7% | 93.68 | Number of Aggregates / Aggregate Number [2]: 398
QCKIKQIINMWQ [reference compound] | 77% | 76.98 | Conversion Rate / % [1]: 76.98%; Conversion Rate / % ([1]; fluorescamine assay): 76.98%; Avg Area in 3 *(1330 µm *1330 µm) ([2]; Fig S8 panels A, C): 71.85; Log 10 Number of aggregates in 3 * (1330 µm *1330 µm) ([2]; Fig S8 panels A, C): 2.611; Median Area in 3 * (1330 µm *1330 µm) ([2]; Fig S8 panels A, C): 27.89; log Avg Area in 3 * ( (1330 µm *1330 µm)) ([2]; Fig S8 panels A, C): 1.856; log Median Area in 3 * ( (1330 µm *1330 µm)) ([2]; Fig S8 panels A, C): 1.445; log Total Area of all particles in 3 * (1330 µm *1330 µm) ([2]; Fig S8 panels A, C): 4.467; Number of aggregates in 3 * (1330 µm *1330 µm) ([2]; Fig S8 panels A, C, 3 fields of 1330 µm x 1330 µm): 408; Avg Area in 3 *(1330 µm *1330 µm) ([2]; Fig S8 panels B, D, average aggregate area, 3 fields of 1330 µm x 1330 µm): 71.85; Median Area in 3 * (1330 µm *1330 µm) ([2]; Fig S8 panels B, D, median aggregate area, 3 fields of 1330 µm x 1330 µm): 27.89; Total Area of all particles in 3 * (1330 µm *1330 µm) ([2]; Fig S8 panels B, D, total area of all particles, 3 fields of 1330 µm x 1330 µm): 29314.25467; Number of aggregates in 3 * (1330 µm *1330 µm) ([2]; Fig S8 panels B, D, widefield fluorescence microscopy, 3 fields of 1330 µm x 1330 µm): 408; Number of Aggregates / Aggregate Number [2]: 408
RGDKIRGDKI | 48.4% | 48.38 | –
RGECKFKFQF | 98.7% | 98.71 | –
RGEKIKIQINM | 80.3% | 80.28 | –
RLRLTLC | 87.4% | 87.44 | –
SISISRRI | 24.2% | 24.22 | –
